In patent US20250295656A1, “COMBINATION OF LURBINECTEDIN AND IMMUNE CHECKPOINT INHIBITORS” (priority 2020, published 2025):

Tested on: U2OS cells stably expressing HMGB1-GFP
Assay: HMGB1 release (loss of nuclear HMGB1-GFP fluorescence)
Type: cell-based, human
Details: lurbinectedin 1 nM to 1 μM, MTX 1 and 3 μM, medium to late time points
Method: (a) Human osteosarcoma U2OS (a), human breast cancer HCC70 (b) human colon cancer HT29 cells (c) and murine methylcholantrene-induced fibrosarcoma MCA205 cells (d) were treated with lurbinectedin (Lurbi, 1 nM, 10 nM, 100 nM and 1 μM) for the indicated times. Subsequently, the cells were stained with 1 μM Hoechst 33342 and 1 μM propidium iodide and assessed for the loss of viability by automated image acquisition. Images were segmented, cellular debris was excluded and the number of cells with normal nuclear morphology was enumerated. Cells stably expressing CALR-GFP were treated as above. Following the cells were fixed with 3.7% of PFA, stained with 1 μM Hoechst 33342 and assessed by automated image acquisition. Images were segmented, cellular debris was excluded and CALR-GFP granularity (a surrogate marker of CALR exposure) was evaluated in the cytoplasmic region of cells with normal nuclear morphology. Wild type cells were treated as above and then assessed for cytoplasmic quinacrine granularity (after staining with the ATP-sensitive dye quinacrine together with Hoechst 33342) by automated image acquisition, segmentation and analysis. Cells stably expressing HMGB1-GFP were treated as above and then assessed for nuclear HMGB1-GFP fluorescence intensity. The cells were fixed and stained with Hoechst 33342 and images were acquired, segmented and analyzed. […]

With `COc1ccc2[nH]c3c(c2c1)CCN[C@]31CS[C@@H]2c3c(OC(C)=O)c(C)c4c(c3[C@H](COC1=O)N1[C@@H]2[C@H]2c3c(cc(C)c(OC)c3O)C[C@@H]([C@@H]1O)N2C)OCO4` [lurbinectedin] the “nuclear GFP signal (HMGB1-GFP)” value was “significant decrease”.
